Laboratory results from patent US8158623B2, “Heptacyclic compounds and the pharmaceutical uses thereof for preventing and treating diabetes and metabolic syndrome” (Shanghai Institute of Materia Medica Chinese Academy of …, priority 2007, dated 2012).

What was measured:
[1] = test system: diet-induced obese (DIO) mice; experiment: Effect of F7 on body weight of diet-induced obese mice; type: in vivo, C57BL/6J mice; conditions: for Body weight: oral 50 mg/kg daily; for Body weight reduction compared with the model control group: oral 50 mg/kg
Experimental: Male C57BL/6J mice were maintained a SPF facility (temperature: 22-24° C., humidity: 45-80%, illumination: 150-300 Lx, 12/12-hour light/dark cycle). When the mice were 4 weeks old, they were fed with a high-fat diet (purchased from Research Diets Inc. (USA), D12492i, fat content is 60%). After 12 weeks, diet-induced obese (DIO) mice model was established. Another group of mice fed with normal diet (D12450Bi, fat content is 10%) was used as a normal control group. The DIO mice were divided into two group according to body weights, and administrated orally F7 (50 mg/kg) or 0.1% Tween80 (the model control group) respectively, every afternoon just before black out for 5 weeks. The body weights of mice were measured daily, and the effect of Compound F7 on body weight was observed.

ob/ob mice = experiment: Effect of F7 on liver weight, liver triglyceride, ALT and AST; type: in vivo; conditions: oral 50 mg/kg once daily for 3 weeks
Experimental: Genetic spontaneous diabetes ob/ob mice were purchased from Jackson (USA), and maintained in a SPF facility (temperature: 22-24° C., humidity: 45-80%, illumination: 150-300 Lx, 12/12-hour light/dark cycle). When the mice were 7 weeks old, the ob/ob mice were grouped into the treatment group and the control group (9 animals per group) according to the fasting blood glucose. The two groups were administered orally with compound F7 (50 mg/kg) and a solution of 0.1% Tween 80 respectively, once daily for 3 weeks. After 3 weeks, the animals were sacrificed and the liver was excised and weighed.
The triglyceride level in the liver was measured.

3T3-L1 adipocytes = experiment: Glucose uptake in 3T3-L1 adipocytes (3H-labelled 2-deoxyglucose); type: cell-based
Experimental: The effect of the compounds on baseline or insulin-stimulated glucose uptake was evaluated, using the model of glucose uptake in 3T3-L1 adipocytes.
Adipose tissue is the target of glucose metabolism in vivo. The sensitivity for insulin and availability of glucose in adipose tissues are tightly associated with the insulin resistance. The transportation of glucose into adipocytes is a rate-limiting step for the glucose metabolism, and also an important indicator for evaluating the sensitivity for insulin in adipose tissue. 3T3-L1 is a kind of pre-adipocyte, and can become adipocyte after differentiated completely. Therefore, 3T3-L1 is a desirable model for the glucose transport.
Pre-adipocyte, 3T3-L1 was induced to differentiate under certain conditions. After 3T3-L1 differentiated into adipocytes, the compounds of interest with different concentrations and DMSO (used as control) can be added and incubated with the adipocytes for different periods, then the glucose uptake could be determined. For evaluating the ability for a compound to stimulate glucose uptake, the baseline and insulin-induced glucose uptake were determined, and the increase in baseline and insulin-induced glucose uptake upon treatment of the compounds as compared with control group (with 0.1% DMSO) is calculated, based on the ^3H-labelled 2-deoxyglucose inside the cells.
3T3-L1 cells purchased from Karolinska Institute (Sweden) were cultured in DMEM medium containing 10% fetal calf serum at 37° C., under 5% CO2. The cells were passaged every 3-4 days. The cells were inoculated into 12-well plate. Upon confluence, culture medium containing 0.5 mM 3-isobutyl-1-methylxanthine, 0.25 μM dexamethasone and 5 μg/ml insulin was added and cultured for 3 days. Then, the culture medium was replaced by a medium containing 5 μg/ml insulin and further cultured for 3 days. The insulin was removed, and the cells had differentiated completely into mature adipocytes after 2 days which could be used to determine the glucose uptake.
23 compounds chosen by the inventors were added into the culture medium of adipocytes in a dose of 10 μM. After incubation for 2 h, the effect of the compounds on glucose uptake in 3T3-L1 cells was observed. Culture medium without compounds was used as negative control. The control group only supplemented with insulin and the experiment group supplemented with compounds plus insulin were also employed to observe the effect of the compounds on glucose uptake.

In the case of COc1cc(C(=O)O)c2c(c1C)OC(=O)c1c(C)cc(O)c(C=O)c1O2 [Compound F7, 4-Formyl-3-hydroxy-8-methoxy-1,9-dimethyl-11-oxo-11H-dibenzo[b,e][1,4]dioxepine-6-carboxylic acid], the Body weight ([1]; 0 day) is reported as 39.2 ± 3.8 g, the Body weight ([1]; 7 day) is reported as 36.4 ± 3.8 g and the Body weight ([1]; 14 day) is reported as 36.5 ± 4.2 g. For the same molecule, the Body weight ([1]; 21 day) was 36.2 ± 3.9 g, the Body weight ([1]; 28 day) was 36.1 ± 2.6 g and the Body weight ([1]; 35 day) was 35.8 ± 2.0 g. The “Body weight reduction compared with the model control group” value ([1]; 1 week after administration) was 2 g, the “Body weight reduction compared with the model control group” value ([1]; 5 weeks after administration) was 4.5 g and the “Liver TG” value (ob/ob mice) was 106.9 ± 35.6 µmol/g. The “Liver Weight” value (ob/ob mice) was 2.67 ± 0.57 g, the “Weight of other organs or its ratio to body weight” value (ob/ob mice) was “no effect” and the ALT (ob/ob mice; serum) was 161.5 ± 28.4 U/L. For the same molecule, the AST (ob/ob mice; serum) was 197.3 ± 24.6 U/L, the “Glucose uptake, Mean, Compound + Insulin Group (Control Group = 1.000)” value (3T3-L1 adipocytes; 10 μM, 2 h incubation, with insulin, relative to control without insulin) was 3.788 and the fold induction at 10 µM (3T3-L1 adipocytes; Mus musculus, 3T3-L1, 2 h incubation, baseline (without insulin), relative to control, read-out: Glucose uptake, Mean, Compound Group (Control Group = 1.000)) was 1.19.
